# Experiments:
# [1] = Competitive inhibition of Listeria monocytogenes C-terminal His6-tagged NADK1 expressed in Escherichia coli BL21(DE3) assessed as reduction in NADP production using varying levels of NAD as substrate by glucose-6-phosphate dehydrogenase coupled enzyme based spectrophotometric method
# NAD kinase [2] = molecular target: T1, NAD kinase (Homo sapiens, UniProt O95544); assay: Inhibition of human NADK expressed in Escherichia coli BL21(DE3) assessed as reduction in NADP production using NAD as substrate by glucose-6-phosphate dehydrogenase coupled enzyme based spectrophotometric method
# T1 sequence (O95544 whole entry): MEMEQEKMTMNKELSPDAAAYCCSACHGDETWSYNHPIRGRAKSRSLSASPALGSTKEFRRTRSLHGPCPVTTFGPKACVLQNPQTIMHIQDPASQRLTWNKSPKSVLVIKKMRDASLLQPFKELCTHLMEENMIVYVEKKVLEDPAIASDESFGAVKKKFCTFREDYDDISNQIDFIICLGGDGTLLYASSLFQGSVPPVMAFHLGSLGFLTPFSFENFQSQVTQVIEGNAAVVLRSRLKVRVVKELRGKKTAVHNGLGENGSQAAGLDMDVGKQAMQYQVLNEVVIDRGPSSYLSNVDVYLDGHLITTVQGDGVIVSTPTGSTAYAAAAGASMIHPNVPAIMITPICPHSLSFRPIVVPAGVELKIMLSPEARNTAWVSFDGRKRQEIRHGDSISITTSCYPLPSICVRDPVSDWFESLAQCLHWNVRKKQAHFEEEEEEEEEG
# NAD kinase [3] = molecular target: T2, NAD kinase (Staphylococcus aureus (strain COL), UniProt Q5HH78); assay: (§1) Inhibition of Staphylococcus aureus COL NADK expressed in Escherichia coli BL21(DE3) assessed as reduction in NADP production using NAD as substrate by glucose-6-phosphate dehydrogenase coupled enzyme based spectrophotometric method; set-up: species or system Staphylococcus aureus subsp. aureus COL
# T2 sequence (Q5HH78 whole entry): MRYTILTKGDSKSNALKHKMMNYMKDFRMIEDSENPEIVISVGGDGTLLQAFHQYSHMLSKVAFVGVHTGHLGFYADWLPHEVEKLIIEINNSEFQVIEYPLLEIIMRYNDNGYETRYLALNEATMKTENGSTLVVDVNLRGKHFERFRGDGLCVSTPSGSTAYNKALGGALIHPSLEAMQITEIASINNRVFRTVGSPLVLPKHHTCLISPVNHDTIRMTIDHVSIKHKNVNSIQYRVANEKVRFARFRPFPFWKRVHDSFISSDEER
# Bacillus subtilis = assay: Inhibition of Bacillus subtilis NADK1 expressed in Escherichia coli BL21(DE3) assessed as reduction in NADP production at 300 uM using NAD as substrate by glucose-6-phosphate dehydrogenase coupled enzyme based spectrophotometric method relative to control
# [4] = Inhibition of Listeria monocytogenes C-terminal His6-tagged NADK1 P132S mutant expressed in Escherichia coli BL21(DE3) assessed as reduction in NADP production using varying levels of NAD as substrate by glucose-6-phosphate dehydrogenase coupled enzyme based spectrophotometric method
# [5] = as §1, with “of Listeria monocytogenes C-terminal His6-tagged NADK1 harboring” for “of”, “NADK segment 1” for “NADK”
# [6] = Inhibition of Staphylococcus aureus COL NADK S132P mutant expressed in Escherichia coli BL21(DE3) assessed as reduction in NADP production using NAD as substrate by glucose-6-phosphate dehydrogenase coupled enzyme based spectrophotometric method; set-up: species or system Staphylococcus aureus subsp. aureus COL
# [7] = Inhibition of Bacillus subtilis NADK1 S132P mutant expressed in Escherichia coli BL21(DE3) assessed as reduction in NADP production using NAD as substrate by glucose-6-phosphate dehydrogenase coupled enzyme based spectrophotometric method
# [8] = Inhibition of Bacillus subtilis NADK1 harboring Listeria monocytogenes NADK1 segment 1 expressed in Escherichia coli BL21(DE3) assessed as reduction in NADP production using NAD as substrate by glucose-6-phosphate dehydrogenase coupled enzyme based spectrophotometric method
# [9] = Inhibition of Bacillus subtilis NADK1 harboring Listeria monocytogenes NADK1 segment 2 expressed in Escherichia coli BL21(DE3) assessed as reduction in NADP production using NAD as substrate by glucose-6-phosphate dehydrogenase coupled enzyme based spectrophotometric method
# [10] = Inhibition of human NADK harboring Listeria monocytogenes NADK1 segment 1 expressed in Escherichia coli BL21(DE3) assessed as reduction in NADP production using NAD as substrate by glucose-6-phosphate dehydrogenase coupled enzyme based spectrophotometric method
# [11] = Cytotoxicity against human MRC5 cells up to 1 x 10^-4M; type: toxicity, cell-based
smiles,measurement,setting,value
[N-]=[N+]=NC[C@H]1O[C@@H](n2c(SCC(=O)NCCc3cccc(Br)c3)nc3c(N)ncnc32)[C@H](O)[C@@H]1O,Ki,[1],1 µM
same,Ki,NAD kinase [2],330 µM
same,IC50,NAD kinase [3],> 400 µM
same,inhibition,Bacillus subtilis,15%
same,Ki,[4],10 µM
same,Ki,[5],2.5 µM
same,Ki,[6],170 µM
same,Ki,[7],100 µM
same,Ki,[8],55 µM
same,Ki,[9],30 µM
same,Ki,[10],75 µM
same,Activity,[11],Non-Toxic
